Data as given in patent US20260207585A1, “METHODS AND COMPOSITIONS FOR THE TREATMENT OF PARKINSON'S DISEASE, HUNTINGTON'S DISEASE, AMYOTROPHIC LATERAL SCLEROSIS, AND LEARNING DISORDERS” (Cedars-Sinai Medical Center, priority 2022, published 2026).
Like-named read-outs stand apart in the source and are kept apart here.

What was measured:
MLL3 Complex = MLL3 Complex (Homo sapiens, UniProt Q8NEZ4); assay: Methyltransferase inhibition panel: MLL3 Complex; format: biochemical
Experimental: (§1) The ability of ETP69 to inhibit methyltransferases was tested.

PRMT5/MEP50 Complex = PRMT5/MEP50 Complex (Homo sapiens, UniProt O14744); assay: Methyltransferase inhibition panel: PRMT5/MEP50 Complex; format: biochemical
Experimental: as §1

SETD2 = SETD2 (Homo sapiens, UniProt Q9BYW2); assay: Methyltransferase inhibition panel: SETD2; format: biochemical
Chain of SETD2 (Q9BYW2 whole entry): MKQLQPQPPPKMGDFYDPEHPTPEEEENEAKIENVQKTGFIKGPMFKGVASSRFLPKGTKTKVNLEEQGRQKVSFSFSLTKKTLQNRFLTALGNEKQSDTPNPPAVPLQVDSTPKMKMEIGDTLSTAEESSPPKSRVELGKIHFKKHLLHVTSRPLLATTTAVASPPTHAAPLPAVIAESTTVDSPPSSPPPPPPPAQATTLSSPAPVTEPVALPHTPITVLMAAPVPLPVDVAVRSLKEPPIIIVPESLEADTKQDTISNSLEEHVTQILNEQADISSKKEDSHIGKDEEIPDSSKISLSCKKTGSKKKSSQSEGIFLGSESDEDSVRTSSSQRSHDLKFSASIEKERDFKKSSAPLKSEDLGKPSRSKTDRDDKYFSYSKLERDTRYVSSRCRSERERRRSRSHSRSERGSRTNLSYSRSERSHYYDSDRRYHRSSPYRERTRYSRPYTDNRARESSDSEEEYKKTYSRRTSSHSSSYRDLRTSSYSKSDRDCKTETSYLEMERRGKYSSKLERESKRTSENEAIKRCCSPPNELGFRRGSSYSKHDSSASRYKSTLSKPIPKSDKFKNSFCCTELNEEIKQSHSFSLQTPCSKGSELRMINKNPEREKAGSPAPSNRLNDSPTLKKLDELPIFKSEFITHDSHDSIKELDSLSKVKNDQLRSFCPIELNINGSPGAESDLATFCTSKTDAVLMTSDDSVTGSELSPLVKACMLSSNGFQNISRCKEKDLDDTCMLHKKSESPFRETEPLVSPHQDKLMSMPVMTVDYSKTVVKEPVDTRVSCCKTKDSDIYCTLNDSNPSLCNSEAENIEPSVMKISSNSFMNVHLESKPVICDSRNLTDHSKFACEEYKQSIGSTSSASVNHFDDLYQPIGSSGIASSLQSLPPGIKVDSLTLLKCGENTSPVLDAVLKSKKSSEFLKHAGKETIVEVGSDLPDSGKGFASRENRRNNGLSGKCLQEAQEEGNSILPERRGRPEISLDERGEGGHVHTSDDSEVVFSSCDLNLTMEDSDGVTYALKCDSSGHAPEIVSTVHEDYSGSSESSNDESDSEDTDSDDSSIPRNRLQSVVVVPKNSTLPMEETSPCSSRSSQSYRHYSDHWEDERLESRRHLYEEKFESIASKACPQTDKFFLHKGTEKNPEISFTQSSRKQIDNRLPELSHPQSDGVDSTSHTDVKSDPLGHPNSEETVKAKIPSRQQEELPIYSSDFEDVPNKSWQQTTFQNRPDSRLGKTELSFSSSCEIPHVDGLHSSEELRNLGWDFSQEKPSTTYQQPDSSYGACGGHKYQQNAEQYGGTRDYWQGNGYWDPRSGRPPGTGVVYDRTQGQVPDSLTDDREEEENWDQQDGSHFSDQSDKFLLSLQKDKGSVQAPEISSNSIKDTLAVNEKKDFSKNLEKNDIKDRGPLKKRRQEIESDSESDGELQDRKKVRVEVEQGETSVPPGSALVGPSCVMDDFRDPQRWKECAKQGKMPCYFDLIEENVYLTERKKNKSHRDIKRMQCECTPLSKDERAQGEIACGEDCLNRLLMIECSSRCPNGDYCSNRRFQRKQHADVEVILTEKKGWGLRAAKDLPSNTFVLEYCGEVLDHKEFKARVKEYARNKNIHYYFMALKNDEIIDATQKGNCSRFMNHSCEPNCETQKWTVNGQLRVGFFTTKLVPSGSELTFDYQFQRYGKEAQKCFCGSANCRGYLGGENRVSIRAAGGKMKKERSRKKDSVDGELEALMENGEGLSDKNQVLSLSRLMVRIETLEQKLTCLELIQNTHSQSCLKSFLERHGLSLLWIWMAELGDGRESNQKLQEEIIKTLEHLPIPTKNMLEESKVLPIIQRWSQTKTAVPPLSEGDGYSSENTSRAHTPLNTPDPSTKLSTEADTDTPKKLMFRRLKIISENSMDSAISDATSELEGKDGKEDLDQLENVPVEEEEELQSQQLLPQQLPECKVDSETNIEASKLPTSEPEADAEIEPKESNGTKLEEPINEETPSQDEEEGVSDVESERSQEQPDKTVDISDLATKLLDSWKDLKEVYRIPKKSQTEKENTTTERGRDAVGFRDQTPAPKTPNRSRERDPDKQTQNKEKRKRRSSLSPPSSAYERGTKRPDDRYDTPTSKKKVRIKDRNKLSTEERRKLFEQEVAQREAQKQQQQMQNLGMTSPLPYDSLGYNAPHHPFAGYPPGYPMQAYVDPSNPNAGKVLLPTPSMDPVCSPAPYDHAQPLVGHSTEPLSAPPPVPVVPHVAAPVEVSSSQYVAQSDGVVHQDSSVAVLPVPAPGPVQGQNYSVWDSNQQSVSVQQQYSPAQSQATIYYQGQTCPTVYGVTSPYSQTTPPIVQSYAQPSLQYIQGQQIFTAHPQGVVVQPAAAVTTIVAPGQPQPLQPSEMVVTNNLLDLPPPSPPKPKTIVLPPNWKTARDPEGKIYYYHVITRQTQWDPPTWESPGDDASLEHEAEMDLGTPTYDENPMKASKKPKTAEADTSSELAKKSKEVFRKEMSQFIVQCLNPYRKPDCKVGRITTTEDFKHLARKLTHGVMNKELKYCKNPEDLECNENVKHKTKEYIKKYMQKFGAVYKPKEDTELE
Experimental: as §1

MLL2 Complex = MLL2 Complex (Homo sapiens, UniProt O14686); assay: Methyltransferase inhibition panel: MLL2 Complex; format: biochemical
Experimental: as §1

DNMT3b = DNMT3b (Homo sapiens, UniProt Q9UBC3); assay: Methyltransferase inhibition panel: DNMT3b; format: biochemical
Experimental: as §1

SET8 = target: T1, SET8 (Homo sapiens, UniProt Q9NQR1); assay: Methyltransferase inhibition panel: SET8; format: biochemical
T1 sequence (Q9NQR1 1-393): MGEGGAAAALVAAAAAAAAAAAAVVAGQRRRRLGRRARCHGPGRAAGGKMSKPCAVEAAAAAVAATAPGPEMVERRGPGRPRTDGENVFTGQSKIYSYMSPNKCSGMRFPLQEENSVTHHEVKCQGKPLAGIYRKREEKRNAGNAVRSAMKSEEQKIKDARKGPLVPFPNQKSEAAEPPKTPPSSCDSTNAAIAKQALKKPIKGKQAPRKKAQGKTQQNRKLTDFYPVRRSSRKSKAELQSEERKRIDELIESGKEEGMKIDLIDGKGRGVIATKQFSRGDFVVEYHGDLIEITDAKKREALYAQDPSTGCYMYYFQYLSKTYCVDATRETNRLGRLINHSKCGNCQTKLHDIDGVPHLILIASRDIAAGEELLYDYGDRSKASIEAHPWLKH
Experimental: as §1

NRMT1 = target: T2, NRMT1 (Homo sapiens, UniProt Q9BV86); assay: Methyltransferase inhibition panel: NRMT1; format: biochemical
T2 sequence (Q9BV86 1-223): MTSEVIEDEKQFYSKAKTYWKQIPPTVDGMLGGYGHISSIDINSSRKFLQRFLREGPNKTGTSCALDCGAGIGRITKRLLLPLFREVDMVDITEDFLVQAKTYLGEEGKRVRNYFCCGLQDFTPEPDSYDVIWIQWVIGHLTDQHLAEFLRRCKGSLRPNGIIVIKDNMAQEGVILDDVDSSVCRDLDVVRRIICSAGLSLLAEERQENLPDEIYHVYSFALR
Experimental: as §1

MLL4 Complex = MLL4 Complex (Homo sapiens, UniProt Q9UMN6); assay: Methyltransferase inhibition panel: MLL4 Complex; format: biochemical
Chain of MLL4 Complex (Q9UMN6 2490-2715): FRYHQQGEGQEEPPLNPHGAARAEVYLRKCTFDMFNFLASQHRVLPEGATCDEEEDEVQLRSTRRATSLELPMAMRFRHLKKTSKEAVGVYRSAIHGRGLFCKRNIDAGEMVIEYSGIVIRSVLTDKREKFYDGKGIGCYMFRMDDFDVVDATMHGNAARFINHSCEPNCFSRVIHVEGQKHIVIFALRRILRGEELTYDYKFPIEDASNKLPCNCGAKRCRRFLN
Chain of MLL4 Complex (Q9C005 whole entry, further chain): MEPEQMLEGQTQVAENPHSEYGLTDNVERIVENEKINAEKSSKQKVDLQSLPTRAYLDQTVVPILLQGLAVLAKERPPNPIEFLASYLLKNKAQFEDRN
Chain of MLL4 Complex (Q9UBL3 whole entry, further chain): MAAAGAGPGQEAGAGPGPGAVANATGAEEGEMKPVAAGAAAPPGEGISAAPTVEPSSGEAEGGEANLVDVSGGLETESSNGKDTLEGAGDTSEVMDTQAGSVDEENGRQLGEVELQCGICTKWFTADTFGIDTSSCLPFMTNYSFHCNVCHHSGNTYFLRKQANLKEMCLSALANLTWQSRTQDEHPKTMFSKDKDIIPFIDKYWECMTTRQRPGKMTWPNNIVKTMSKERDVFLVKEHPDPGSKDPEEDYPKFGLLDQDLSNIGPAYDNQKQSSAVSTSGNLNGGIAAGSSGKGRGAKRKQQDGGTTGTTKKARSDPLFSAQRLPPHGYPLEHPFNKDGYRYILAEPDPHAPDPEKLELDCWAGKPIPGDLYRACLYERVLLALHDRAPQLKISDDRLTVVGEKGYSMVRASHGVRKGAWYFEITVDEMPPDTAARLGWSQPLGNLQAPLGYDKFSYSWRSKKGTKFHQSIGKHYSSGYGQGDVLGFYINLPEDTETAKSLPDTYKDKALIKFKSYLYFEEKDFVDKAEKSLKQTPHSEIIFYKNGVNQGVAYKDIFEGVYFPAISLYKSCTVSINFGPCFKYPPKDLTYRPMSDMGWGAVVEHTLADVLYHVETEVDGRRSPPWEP
Chain of MLL4 Complex (Q15291 whole entry, further chain): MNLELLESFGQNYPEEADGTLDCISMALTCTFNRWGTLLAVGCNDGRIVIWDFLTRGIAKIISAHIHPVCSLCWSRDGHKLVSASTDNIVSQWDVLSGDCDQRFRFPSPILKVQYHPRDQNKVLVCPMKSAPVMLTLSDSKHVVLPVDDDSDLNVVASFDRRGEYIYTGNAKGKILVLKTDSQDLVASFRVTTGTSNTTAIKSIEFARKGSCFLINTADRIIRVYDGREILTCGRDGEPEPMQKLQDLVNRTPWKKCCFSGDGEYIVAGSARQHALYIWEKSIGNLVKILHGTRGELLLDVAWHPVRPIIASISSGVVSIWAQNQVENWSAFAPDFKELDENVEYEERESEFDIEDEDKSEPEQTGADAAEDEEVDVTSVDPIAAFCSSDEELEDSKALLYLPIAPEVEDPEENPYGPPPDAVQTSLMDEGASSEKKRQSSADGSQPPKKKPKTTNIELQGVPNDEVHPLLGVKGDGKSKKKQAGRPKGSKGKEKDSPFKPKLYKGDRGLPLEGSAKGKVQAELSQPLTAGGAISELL
Experimental: as §1

PRMT8 = PRMT8 (Homo sapiens, UniProt Q9NR22); assay: Methyltransferase inhibition panel: PRMT8; format: biochemical
Experimental: as §1

AD+ mice = assay: Open Field Barnes Maze test; format: in vivo; conditions: AD+ mice vs AD+ mice treated with DMSO
Experimental: The effects of single and repeated ETP69 injections in mice were tested. The experimental timeline is depicted in FIG. 5. Three parallel injection conditions were tested: a single ETP69 condition, a boosted ETP69 injection, and repeated ETP69 injections. The single injection mice received one injection of ETP69 or DMSO at Day 0. The mice that received a boosted injection received one injection of ETP69 or DMSO at day 0 and one injection at day 9. The mice that received repeated injections received 11 injections of ETP69 or DMSO at day 0 or day 9. Both wildtype and AD model (APP/PS1-transgenic) mice were tested.
The results of the Open Field Barnes Maze test indicate hippocampal-based spatial memory. FIG. 7A depicts a schematic of the Barnes Maze Test. […] The results of the fear conditioning test indicate spatial memory.

PRMT3 = PRMT3 (Homo sapiens, UniProt O60678); assay: Methyltransferase inhibition panel: PRMT3; format: biochemical
Experimental: as §1

[1] = read-out: Enzyme % Activity (relative to DMSO controls) Data 1
[2] = read-out: Enzyme % Activity (relative to DMSO controls) Data 2
[3] = NT1721 20 μM, substrate Nucleosomes 0.05 mg/mL

Chain of MLL3 Complex (Q15291 whole entry): as the sequence (Q15291 whole entry, further chain) above
Chain of MLL3 Complex (Q8NEZ4 4689-4911): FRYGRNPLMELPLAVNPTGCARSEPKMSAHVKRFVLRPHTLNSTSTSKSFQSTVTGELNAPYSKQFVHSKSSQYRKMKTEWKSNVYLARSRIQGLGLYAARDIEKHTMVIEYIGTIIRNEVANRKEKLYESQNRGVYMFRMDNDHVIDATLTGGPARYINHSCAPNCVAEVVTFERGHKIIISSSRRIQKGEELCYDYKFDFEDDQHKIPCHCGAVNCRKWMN
Chain of MLL3 Complex (Q9UBL3 96-628, further chain): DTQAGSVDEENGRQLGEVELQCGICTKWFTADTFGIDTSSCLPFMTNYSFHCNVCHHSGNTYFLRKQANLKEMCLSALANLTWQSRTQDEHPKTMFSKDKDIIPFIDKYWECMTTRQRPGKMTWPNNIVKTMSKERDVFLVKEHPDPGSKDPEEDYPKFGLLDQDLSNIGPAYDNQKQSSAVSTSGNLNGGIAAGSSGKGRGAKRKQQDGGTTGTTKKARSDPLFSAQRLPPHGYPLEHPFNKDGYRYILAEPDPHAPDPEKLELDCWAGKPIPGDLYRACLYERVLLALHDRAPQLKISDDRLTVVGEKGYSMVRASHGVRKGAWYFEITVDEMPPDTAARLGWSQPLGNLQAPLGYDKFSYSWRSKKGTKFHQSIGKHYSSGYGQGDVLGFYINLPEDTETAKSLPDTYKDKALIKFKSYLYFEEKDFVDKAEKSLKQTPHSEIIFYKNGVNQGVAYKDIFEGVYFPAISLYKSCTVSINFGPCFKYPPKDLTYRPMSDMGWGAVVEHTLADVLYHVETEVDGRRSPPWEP
Chain of MLL3 Complex (Q9C005 whole entry, further chain): as the sequence (Q9C005 whole entry, further chain) above

## CN1C(=O)[C@@]23C[C@](C)(C#N)[C@H](c4ccc5c(c4)OCO5)N2C(=O)[C@]1(C)SS3 (racemic) [ETP69, Rac-(3S,6S,7S,8aS)-6-(benzo[d][1,3]dioxol-5-yl)-2,3,7-trimethyl-1,4-dioxohexahydro-6H-3,8a-epidithiopyrrolo[1,2-a]pyrazine-7-carbonitrile]
MLL3 Complex; [1]
  remaining activity at 20 µM: 36.6%
MLL3 Complex; [2]
  remaining activity at 20 µM: 32.6%
MLL3 Complex; summary of Table 1
  inhibition relative to DMSO controls: at least 7500
PRMT5/MEP50 Complex; [1]
  remaining activity at 20 µM: 92.2%
PRMT5/MEP50 Complex; [2]
  remaining activity at 20 µM: 93.1%
SETD2; [3]
  Enzyme % Activity (relative to DMSO controls) Data 1: 20.95%
  Enzyme % Activity (relative to DMSO controls) Data 2: 22.89%
SETD2; summary of Table 1
  inhibition relative to DMSO controls: at least 7500
MLL2 Complex; [1]
  remaining activity at 20 µM: 19%
MLL2 Complex; [2]
  remaining activity at 20 µM: 20.4%
MLL2 Complex; summary of Table 1
  inhibition relative to DMSO controls: at least 7500
DNMT3b; [1]
  remaining activity at 20 µM: 84.8%
DNMT3b; [2]
  remaining activity at 20 µM: 80.9%
SET8; [1]
  remaining activity at 20 µM: 92.3%
SET8; [2]
  remaining activity at 20 µM: 92.6%
NRMT1; [1]
  remaining activity at 20 µM: 90.5%
NRMT1; [2]
  remaining activity at 20 µM: 94.6%
MLL4 Complex; [1]
  remaining activity at 20 µM: 1.32%
MLL4 Complex; [2]
  remaining activity at 20 µM: 1.17%
MLL4 Complex; summary of Table 1
  inhibition relative to DMSO controls: at least 7500
PRMT8; [1]
  remaining activity at 20 µM: 95.7%
PRMT8; [2]
  remaining activity at 20 µM: 94.7%
AD+ mice
  memory retention: improvement
PRMT3; [1]
  remaining activity at 20 µM: 94%
PRMT3; [2]
  remaining activity at 20 µM: 95%
